The values below are quoted from earlier work in patent US20040266704A1, “Method comprising irinotecan for treatment of breast cancer” (priority 2003, published 2004).

The test system of series [1] is advanced or recurrent breast cancer. As to conditions: intravenous drip-infusion; patients with advanced breast cancer.
For the next series, the system named is advanced breast cancer. The following applies: intravenous; patients with prior endocrine therapy and prior chemotherapy including adriamycin or other anthracyclines.
The test system of the next series is recurrent breast cancer. As to conditions: intravenous; four cases, previous chemotherapy including doxorubicin.
For series [2], the system named is anthracycline resistant metastatic breast cancer. As to conditions: intravenous salvage therapy; twelve patients, prior chemotherapy including an anthracycline.
For series [3], the system named is advanced and metastatic breast cancer pretreated with doxorubicin and docetaxel. As to conditions: intravenous.
The subject of series [4] is refractory advanced breast cancer. As to conditions: IV, two schedules; 103 patients who failed an anthracycline, a taxane or both; preliminary data.

Regarding `CCc1c2c(nc3ccc(OC(=O)N4CCC(N5CCCCC5)CC4)cc13)-c1cc3c(c(=O)n1C2)COC(=O)[C@]3(O)CC` [CPT-11, [1,4′-Bipiperidine]-1′-carboxylic acid (4S)-4,11-diethyl-3,4,12,14-tetrahydro-4-hydroxy-3,14-dioxo-1H-pyrano[3′,4′:6,7]indolizino[1,2-b]quinolin-9-yl ester], the “clinical efficacy against advanced or recurrent breast cancer” value in series [1] is “effective”; in the series on recurrent breast cancer, “effective agent”. The “clinical efficacy in advanced breast cancer” value in the series with advanced breast cancer is given as “promising drug”. Besides, the “treatment results in metastatic breast cancer” value in series [2] is recorded as “satisfactory”. The “clinical efficacy in the salvage setting” value in series [3] is “inactive”. For the same compound, in series [4], the toxicity profile entry was “acceptable toxicity profile”.
